Reference: US20200276164A1, “PHARMACEUTICAL COMBINATIONS FOR THE TREATMENT OF CANCER” (The Queen's University of Belfast, priority 2017, published 2020)

Key:
LNCaP xenograft = LNCaP xenograft study, tumour growth
Protocol: MDV3100 (in 0.1% DMSO in corn oil) was administered orally (p.o). Vehicle control (VC) or MDV3100 (4 mg/kg, equivalent to 100 mg/day in men) was administered daily. Human IL-8 and VEGF nAbs were administered 3×/week via intraperitoneal (i.p.) injection, at a final concentration of 50 μg/ml and 100 μg/ml, respectively. IgG control was at a final concentration of 150 μg/ml.
LNCaP cells (1×10^7 in Matrigel) were implanted on the rear dorsum of 8-10-week-old male Balb/c SCID mice. When tumour volume was 150-200 mm^3, mice were randomly assigned to treatment groups (3-5 per group). […] Mice were sacrificed at day 28 or day 35. Tumour growth over 28 days (% T/C) was calculated using the equation: % T/C=(mean tumour volume on day 28−mean starting volume)/(mean control tumour volume on day 28−mean control starting volume)×100.
Tumours were measured 3×/week using digital calipers. The length and width of the tumour was measured and the volume calculated using the formula volume=(length×width 2)/2. *, numbers in brackets show % T/C compared to enzalutamide alone at day 28; **, control is enzalutamide alone.

HUVEC cells = experiment: HUVEC apoptosis (Annexin V/PI staining); type: cell-based, human; conditions: 10 μM, 72 h
Protocol: FIG. 1 illustrates that MDV3100 treatment directly affects tumour vasculature. (A) Graph illustrating measured intra-tumoural oxygenation levels in growing MDV3100-treated LNCaP tumours, in the absence and presence of anti-IL-8 nAb (50 μg/ml) and/or anti-VEGF nAb (100 μg/ml). Values shown are mean (±SD). (B) Bar graph presenting time-dependent changes in tumour vessel density over time in MDV3100-treated LNCaP tumours, in the absence or presence of anti-IL-8 nAb (50 μg/ml) and/or anti-VEGF nAb (100 μg/ml). Stereological methods were used to analyze change in vessel density over time in all treatment groups and values were used to calculate percentage area covered by vessels. […] Data shown are the mean (±SEM) of four individual experiments. […] Viability was determined by MTT assay. […] Apoptosis was assessed by Annexin V/PI staining. […] The number of junctions was measured using AngioSys 2.0 software. […] For all data, statistically significant differences were determined using a Student's two-tailed t-test or Mann-Whitney U test:* p<0.05, ** p<0.01, *** p<0.001.
To further understand the events contributing to MDV3100-promoted hypoxia, we studied the direct effect of MDV3100 administration upon vascular endothelial cells using two independent i assays. In agreement with previous studies, we detected AR mRNA in HUVEC endothelial cells by qPCR analysis (FIG. 1C, top panel). […]

LNCaP cells [1] = experiment: PARP immunoblot in LNCaP cells; type: cell-based, human; conditions: 10 μM, 72 h
Protocol: (§1) Immunoblotting was performed as previously described (McCourt et al., Clin Cancer Res 2012; 18:3822-33). Antibodies were obtained as follows: AR, Millipore (#PG-21, UK); AR-V7 (#ab198394) & PARP (#14-6667-82), Abcam (UK); Bcl-2 (#4223), Cell Signalling Technology (The Netherlands); c-FLIP (#AG-20B-0056), Adipogen (Switzerland); RELA(p65) (#sc-372), Santa Cruz (CA, USA); GAPDH (#MCA4740), Biorad (UK).

LNCaP tumours = experiment: Tumour oxygenation measurement in LNCaP xenograft model; type: in vivo, Balb/c SCID mice; conditions: MDV3100 4 mg/kg p.o. daily, nAbs i.p. 3x/week (anti-IL-8 50 μg/ml, anti-VEGF 100 μg/ml), over 28 days
Protocol: Tumour oxygenation was measured once weekly as previously described (Ming et al., Int J Cancer 2013; 132:1323-32).

LNCaP-EnzR cells [2] = experiment: Immunoblot of PARP, AR, c-FLIP and Bcl-2 in LNCaP-EnzR cells; type: cell-based, human; conditions: MDV3100 10 μM, 72 h
Protocol: as §1

PC3 cells [3] = experiment: PC3 cell viability assay; type: cell-based, human; conditions: increasing concentrations, 72 h, relative to DMSO vehicle control
Protocol: (§2) Cell viability was assessed by 3-(4,5-dimethylthiazol-2-yl)-2,5-diphenyltetrazolium bromide (MTT) assay as previously described (Maxwell et al., Oncogene 2007; 26: 7333-45).

hypoxic LNCaP cells [4] = experiment: ELISA of secreted VEGF and IL-8 from hypoxic LNCaP cells; type: cell-based, human; conditions: MDV3100 10 μM, relative to DMSO
Protocol: (§3) Authenticated PC3 (ATCC CRL-1435), LNCaP (ATCC CRL-1740) and 22Rv1 (ATCC CRL-2505) cells were cultured as described in Seaton et al. (Carcinogenesis 2008; 29: 1148-56). C4-2B cells were maintained in RPMI 1640 supplemented with 10% fetal calf serum (FCS). MDV3100-sensitive (LNCaP-Par) and resistant (LNCaP-EnzR) cells were obtained from Prof. Vander Griend, University of Chicago, Chicago, Ill., and were cultured as described in Kregel et al. (Oncotarget 2016; 7: 26259-74). HUVEC (ATCC CRL-1730) cells were maintained in Endothelial Cell Growth Medium (#CC-3162, Lonza, UK). For experiments involving hypoxia (0.1% 02), cells were cultured as previously reported (Maxwell et al., Oncogene 2007; 26: 7333-45). Human IL-8 monoclonal antibody (#MAB208), human VEGF mAb (#AB293NA) and isotype-matched IgG (#MAB002) were obtained from R&D Systems (UK). MDV3100 (#S1250) was obtained from Selleckchem (Germany). Cells were regularly tested to ensure they were free of mycoplasma contamination.
Secreted IL-8 (#M1918, Pelikine, Mast Group, UK), and VEGF (#DY293B, R&D Systems, UK) were measured by ELISA as per manufacturer's instructions.

C4-2B cells = experiment: C4-2B cell viability assay; type: cell-based; conditions: 72 h
Protocol: as §3, §2

PC3 cells [5] = experiment: Chick embryo experimental metastasis model (CAM assay), PC3 colonization; type: in vivo; conditions: over five days; 0.1 mL of 20 μM solution i.v. per embryo on days 1 and 2
Protocol: Experimental metastasis assays were performed in chick embryos as described (Deryugina et al., Histochem Cell Biol 2008; 130: 1119-30). On day 12 of incubation, PC3 cells were injected directly into the blood circulation through an allantoic vein (1×10^5 cells in 0.1 mL serum-free medium per embryo). MDV3100 was delivered i.v. on days 1 and 2 after cell inoculations (0.1 mL of a 20 μM solution per embryo). On day 5, portions of the CAM were harvested to quantify the number of human tumour cells by human-specific Alu-qPCR as previously described (Deryugina et al., Cancer Res 2005; 65: 10959-69), using a standard curve generated by serial dilutions of human tumour cells within a constant number (1×10^6) of chick embryo fibroblasts.

LNCaP tumour vasculature = experiment: Dorsal skin flap model, tumour vessel coverage; type: in vivo, Balb/c SCID mice
Protocol: A viewing chamber was attached to a raised skin flap on the dorsal surface of the mouse (Balb/c SCID) and a fragment (˜0.5 mm) of LNCaP tumour was placed on the microvascular as previously described (9). Tumour vasculature was imaged weekly/4 weeks using a stereomicroscope. Image analysis was carried out using Touptek software (Touptek Photonics, China).

LNCaP cells [6] = experiment: LNCaP cell viability (MTT assay), normoxia or hypoxia; type: cell-based, human; conditions: 10 μM, 72 h
Protocol: as §3, §2

[7] = tested on: endothelial cell tubule formation; experiment: In vitro angiogenesis (V2A vascular tubule formation) assay; type: cell-based; conditions: 10 days; for stimulation of endothelial cell tubule formation: VEGF 2 ng/ml or rh-IL-8 3 nM
Protocol: The V2A angiogenesis assay (#ZHA-4000, Cellworks, UK) was carried out according to the manufacturer's instruction. Cells were allowed to settle for 4 days prior to treatment. Treatments were carried out in duplicate and were replenished every 2 days for 10 days. For treatments involving conditioned media, PC3 or LNCaP cells were treated as required for 24 h, media harvested and stored at −20° C. Vessels were visualized at 4× magnification. Vessel density was measured in four fields per well using AngioSys 2.0 software (Cellworks, UK).

[8] = HUVEC cell viability (MTT assay); type: cell-based; conditions: human, HUVEC cells, read-out: reduction of viability of HUVEC cells
Protocol: as §2

LNCaP-EnzR cells [9] = experiment: LNCaP-EnzR (MDV3100-resistant) cell viability assay; type: cell-based, human; conditions: MDV3100 10 μM, relative to DMSO control
Protocol: as §3, §2

hypoxic LNCaP cells [10] = experiment: qPCR of hypoxia-induced gene expression in LNCaP cells; type: cell-based, human; conditions: MDV3100 10 μM
Protocol: as §3
Nucleic acid samples were prepared and analyzed as previously described (Maxwell et al., Oncogene 2007; 26: 7333-45; Maxwell et al., Eur Urol 2013; 64: 177-88). Primer sequences were as follows: AR: Forward, 5′-[…]-3′ (SEQ ID NO: 1); Reverse, 5′-[…]-3′ (SEQ ID NO: 2); PSA/KLK3: Forward, 5′-[…]-3′ (SEQ ID NO: 3); Reverse, 5′-TTGCGCACACACGTCATT-3′ (SEQ ID NO: 4). Primer sequences for 18s, BCL2, CAIX, IL-8, and VEGF have been previously reported (Maxwell et al., Oncogene 2007; 26: 7333-45; Lekas et al., Urol Res 1997; 25: 309-14).

CNC(=O)c1ccc(N2C(=S)N(c3ccc(C#N)c(C(F)(F)F)c3)C(=O)C2(C)C)cc1F [MDV3100, Enzalutamide]
Tumour volume at day 28 (mm^3) (±SD) (LNCaP xenograft; day 28, MDV3100 4 mg/kg p.o. daily, antibodies i.p. 3x/week): 423 (±90) mm^3 | reduction in tumour volume / tumour growth (LNCaP xenograft; treatment-day 28, over 28 days): 59.5% | % T/C (LNCaP xenograft; tumour growth over 28 days versus vehicle control): 39.0% | induction of apoptosis in HUVEC cells (HUVEC cells; hypoxia): significantly enhanced | induction of apoptosis in HUVEC cells (HUVEC cells; normoxic culture conditions): minimal | full-length PARP protein (immunoblot) (LNCaP cells [1]; hypoxic LNCaP cells): stabilization of PARP | full-length PARP protein (immunoblot) (LNCaP cells [1]; normoxic LNCaP cells): loss of full-length PARP protein | intra-tumoural oxygen levels (LNCaP tumours): rapid, profound drop in tumour oxygen levels over the initial 14 days | expression of full-length PARP (immunoblot) (LNCaP-EnzR cells [2]): clearly increased | viability of PC3 cells (PC3 cells [3]): unresponsive | hypoxia-induced secretion of VEGF and IL-8 (ELISA) (hypoxic LNCaP cells [4]): failed to attenuate | sensitivity of C4-2B cells (viability) (C4-2B cells; hypoxia, 10 μM): reduced sensitivity | sensitivity of C4-2B cells (viability) (C4-2B cells; normoxic culture conditions): intermediate sensitivity | PC3 colonization in the CAM assay (PC3 cells [5]): significantly enhanced PC3 colonization | vessel coverage (percentage area covered by tumour vessels) (LNCaP tumour vasculature; 14 days): 5.2±2.2% | vessel coverage (percentage area covered by tumour vessels) (LNCaP tumour vasculature; after 7 days of treatment): 8.2±2.3% | vessel coverage (percentage area covered by tumour vessels) (LNCaP tumour vasculature; day 21): 10.3±3.1% | vessel coverage (percentage area covered by tumour vessels) (LNCaP tumour vasculature; day 28): 14.7±2.6% | viability of LNCaP cells (LNCaP cells [6]; hypoxic conditions): ineffective | viability of LNCaP cells (LNCaP cells [6]; normoxia, relative to DMSO control): reduced the viability | tubule formation with conditioned medium from MDV3100-treated PC3 cells ([7]; CM of PC3 cells cultured with MDV3100 10 μM): no detrimental effect on tubule formation | development of branching junctions (vascular tubule formation) ([7]; MDV3100 10 μM): significantly impaired the development of branching junctions | cytotoxicity at 72 h, 10 μM ([8]; 10 μM): 10% | cytotoxicity at 72 h, 50 μM ([8]; 50 μM): 17% | viability of LNCaP-EnzR cells (LNCaP-EnzR cells [9]): no effect | hypoxia-induced up-regulation of BCL2 (qPCR) (hypoxic LNCaP cells [10]): failed to reverse | hypoxia-induced up-regulation of CAIX (qPCR) (hypoxic LNCaP cells [10]): failed to reverse | hypoxia-induced expression of VEGF and IL-8 (qPCR) (hypoxic LNCaP cells [10]; relative to DMSO): failed to attenuate

VEGF
stimulation of endothelial cell tubule formation [7]: directly stimulated endothelial cell tubule formation

rh-IL-8: exogenous rh-IL-8 (3 nM) added in the tubule formation assay
stimulation of endothelial cell tubule formation [7]: less potent in stimulating tubule formation
